Source: publication PMC10388311, “Innovative Strategy toward Mutant CFTR Rescue in Cystic Fibrosis: Design and Synthesis of Thiadiazole Inhibitors of the E3 Ligase RNF5” (Journal of Medicinal Chemistry, 2023)
Entries after “also recorded” stand apart in the source; their conditions may differ.

Key:
[1] = target: F508del-CFTR in CFBE41o– cells (Homo sapiens, UniProt Q99942); experiment: HS-YFP microfluorimetric assay of F508del-CFTR rescue (corrector activity); format: cell-based; conditions: for F508del-CFTR corrector activity compared with inh-2 (CFTR activity, primary screen): CFBE41o– cells co-expressing F508del-CFTR and HS-YFP, 24 h treatment, Figure 5; for improvement of the rescue elicited by the double combination VX-661 + VX-445 / mutant CFTR activity upon co-treatment with VX-809 or VX-445: RNF5 inhibitor 5 μM; for improvement of the rescue elicited by the double combination VX-661 + VX-445: VX-661 + VX-445 10 μM + 3 μM; for mutant CFTR activity upon co-treatment with VX-809 or VX-445: VX-809 3 μM, VX-445 3 μM
How it was run: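 CFBE41o– cells stably co-expressing F508del-CFTR and HS-YFP were treated with compounds 24 h after seeding; VX-809 (1 μM) served as positive control. F508del-CFTR was stimulated with forskolin (20 μM) plus VX-770 (1 μM) for 25 min before iodide injection. I– influx rate was taken as initial slope (dF/dt) from an exponential fit of YFP quenching.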

[2] = target: T1, recombinant truncated RNF5 (aa 1–117) (Homo sapiens, UniProt Q99942); experiment: MicroScale Thermophoresis (MST) binding check; conditions: RED-NHS labeled RNF5 (aa 1–117); compound at maximum concentration allowed by solubility (12: 100 M [sic])
T1 construct: human RNF5 protein (aa 1–117) truncated to exclude the transmembrane domains; GST (followed by TEV protease site) (N, cleaved yes); host or cells: Escherichia coli BL21(DE3)
From the text: The bindings of compounds 12, 40, and 42 were initially evaluated by MicroScale Thermophoresis (MST) using a purified recombinant truncated form of RNF5 (aa 1–117), lacking the C-terminal transmembrane domains. The protein was covalently labeled with a red dye (NHS) on the primary amines (lysine residues). […] NMR experiments on the recombinant RNF5 form were further performed to test the direct binding of the three compounds to the protein with a more sensitive, label-free, independent approach. Analogs 12, 40, and 42 were tested at 50 μM in the absence and in the presence of 3 μM RNF5 (1–117) protein. […] Indeed, for all three compounds, the NMR signals of their methyls are present in the STD spectra, and in the WaterLOGSY spectra, their signals change from negative to positive in the presence of the protein, indisputably highlighting the formation of compound–protein binding events. […] It has to be noted that NMR is a very sensitive technique that allows detecting also compounds weakly binding to their target protein independent of the possible downstream biological effects. Indeed, we can speculate that compounds 40 and 42 may bind to RNF5 without inhibiting its ubiquitin ligase activity, thus not leading to mutant CFTR rescue. These compounds could even act as RNF5 activators, similar to analog-1.
A construct coding for human RNF5 protein (aa 1–117) truncated to exclude the transmembrane domains, with an N-terminal GST-tag followed by the recognition site for TEV protease (pET vector backbone), was purchased from CliniSciences. A similar construct was recently described in the work of Ruan et al.[44] […]
Purified RNF5 was labeled using a Monolith protein labeling kit RED-NHS 2nd generation (NanoTemper Technologies, München, Germany) following manufacturer’s instructions. Labeled protein (5 nM) was first tested in a pre-test assay for optimal fluorescence, absence of aggregation, and sticking to capillaries using MST buffer [PBS, 0.05% Tween-20, 0.1% PEG-8000, 1 μM ZnCl2] with or without 1 mM DTT. […]

F508del-CFTR in CFBE41o– cells, sequence (Q99942 2-180): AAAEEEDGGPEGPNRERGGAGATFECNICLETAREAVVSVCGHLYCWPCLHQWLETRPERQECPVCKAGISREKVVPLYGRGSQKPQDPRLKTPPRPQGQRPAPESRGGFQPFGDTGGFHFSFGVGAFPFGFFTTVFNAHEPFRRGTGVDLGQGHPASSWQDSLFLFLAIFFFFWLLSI
F508del-CFTR in CFBE41o– cells, sequence (P13569 with tags, fused parts or gaps DEL508-508 partner): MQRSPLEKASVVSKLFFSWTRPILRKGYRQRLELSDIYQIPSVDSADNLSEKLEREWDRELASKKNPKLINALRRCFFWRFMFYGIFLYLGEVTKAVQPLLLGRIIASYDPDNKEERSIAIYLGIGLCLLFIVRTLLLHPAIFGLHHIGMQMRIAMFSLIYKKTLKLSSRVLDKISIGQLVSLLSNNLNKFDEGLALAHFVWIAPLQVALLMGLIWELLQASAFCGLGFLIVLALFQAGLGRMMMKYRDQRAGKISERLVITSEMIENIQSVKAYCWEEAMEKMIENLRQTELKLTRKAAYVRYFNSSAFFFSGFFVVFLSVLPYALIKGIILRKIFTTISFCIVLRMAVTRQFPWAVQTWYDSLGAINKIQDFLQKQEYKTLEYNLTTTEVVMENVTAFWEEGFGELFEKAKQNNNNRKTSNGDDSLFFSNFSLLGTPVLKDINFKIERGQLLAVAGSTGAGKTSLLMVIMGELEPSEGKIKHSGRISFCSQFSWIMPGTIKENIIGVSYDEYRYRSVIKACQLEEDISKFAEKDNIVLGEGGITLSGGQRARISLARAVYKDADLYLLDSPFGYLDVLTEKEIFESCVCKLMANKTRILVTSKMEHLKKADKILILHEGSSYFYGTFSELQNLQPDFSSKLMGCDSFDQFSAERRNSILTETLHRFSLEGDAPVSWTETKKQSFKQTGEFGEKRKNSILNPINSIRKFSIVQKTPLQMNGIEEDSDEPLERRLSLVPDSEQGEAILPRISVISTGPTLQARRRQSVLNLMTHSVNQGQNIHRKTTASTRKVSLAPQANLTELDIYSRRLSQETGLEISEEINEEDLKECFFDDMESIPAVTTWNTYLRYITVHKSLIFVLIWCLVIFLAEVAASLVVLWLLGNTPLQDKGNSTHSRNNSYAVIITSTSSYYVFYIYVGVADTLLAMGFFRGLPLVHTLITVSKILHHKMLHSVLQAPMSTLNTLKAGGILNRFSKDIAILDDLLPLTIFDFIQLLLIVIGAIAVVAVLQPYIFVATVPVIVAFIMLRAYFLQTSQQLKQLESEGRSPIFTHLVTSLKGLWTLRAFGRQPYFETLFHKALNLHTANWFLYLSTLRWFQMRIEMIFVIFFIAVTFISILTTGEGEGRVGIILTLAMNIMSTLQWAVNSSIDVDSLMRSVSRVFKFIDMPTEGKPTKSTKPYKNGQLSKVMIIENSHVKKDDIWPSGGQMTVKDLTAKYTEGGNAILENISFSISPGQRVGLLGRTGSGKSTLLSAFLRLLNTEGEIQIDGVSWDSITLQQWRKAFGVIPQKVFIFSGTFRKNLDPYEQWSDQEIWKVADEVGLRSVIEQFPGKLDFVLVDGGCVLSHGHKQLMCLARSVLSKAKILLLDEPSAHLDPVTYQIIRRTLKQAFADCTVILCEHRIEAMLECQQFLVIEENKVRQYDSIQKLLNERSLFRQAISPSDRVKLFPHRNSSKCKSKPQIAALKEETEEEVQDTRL
T1 sequence (Q99942 1-117): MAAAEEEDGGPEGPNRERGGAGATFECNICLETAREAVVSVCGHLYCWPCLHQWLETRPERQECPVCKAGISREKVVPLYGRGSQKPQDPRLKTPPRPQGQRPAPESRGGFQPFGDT

| SMILES | direct binding to RNF5 by MST (binding check) [2] | F508del-CFTR corrector activity compared with inh-2 (CFTR activity, primary screen) [1] | F508del-CFTR activity in cells transfected with NT or RNF5 siRNA ([1]; CFBE41o– cells, 16 5 μM alone or combined with VX-661 + VX-445 (10 μM + 3 μM), 24 h) | improvement of the rescue elicited by the double combination VX-661 + VX-445 ([1]; CFBE41o– cells, 24 h) | mutant CFTR activity upon co-treatment with VX-809 or VX-445 ([1]; CFBE41o– cells, 24 h) |
| --- | --- | --- | --- | --- | --- |
| Cc1ns/c(=N\C(=N\c2ccccc2)c2ccccc2)n1Cc1ccc(C(=O)O)cc1 [Compound 12, 4-(((Z)-3-Methyl-5-(((E)-phenyl(phenylimino)methyl)imino)-1,2,4-thiadiazol-4(5H)-yl)methyl)benzoic Acid] | compound 12 is binding to RNF5; also recorded: evidence of direct binding | reduced potency; also recorded: lower F508del-CFTR activity compared to inh-2 |  |  |  |
| COc1cccc(Cn2c(C)ns/c2=N\C(=N\c2ccccc2)c2ccccc2)c1 [Compound 16, (E)-N-((Z)-4-(3-Methoxybenzyl)-3-methyl-1,2,4-thiadiazol-5(4H)-ylidene)-N′-phenylbenzimidamide] |  | increased activity; also recorded: greater F508del-CFTR rescue than inh-2 | increased the F508del-CFTR activity only in cells transfected with NT siRNA, but not in those transfected with RNF5 siRNA | able to further improve the rescue | significantly increased mutant CFTR activity |
| Cc1ns/c(=N\C(=N\c2ccccc2)c2ccccc2)n1Cc1ccccc1 [inh-2, reference compound] |  |  |  | only analogue 16 was able to further improve the rescue | significantly increased mutant CFTR activity |

More lines, main results first:

| direct binding to RNF5 by MST (binding check) [2] | SMILES | F508del-CFTR corrector activity compared with inh-2 (CFTR activity, primary screen) [1] | F508del-CFTR activity in cells transfected with NT or RNF5 siRNA ([1]; CFBE41o– cells, 16 5 μM alone or combined with VX-661 + VX-445 (10 μM + 3 μM), 24 h) | improvement of the rescue elicited by the double combination VX-661 + VX-445 ([1]; CFBE41o– cells, 24 h) | mutant CFTR activity upon co-treatment with VX-809 or VX-445 ([1]; CFBE41o– cells, 24 h) |
| --- | --- | --- | --- | --- | --- |
| observed only for compound 12 | Cc1ns/c(=N\c2ccccn2)n1Cc1ccccc1 [Compound 42, (Z)-4-Benzyl-3-methyl-N-(pyridin-2-yl)-1,2,4-thiadiazol-5(4H)-imine] | inactive compounds; also recorded: almost inactive as CFTR correctors |  |  |  |
| observed only for compound 12 | Cc1ns/c(=N\C(=N\c2ccncc2)c2ccccc2)n1Cc1ccccc1 [Compound 40, (E)-N-((Z)-4-Benzyl-3-methyl-1,2,4-thiadiazol-5(4H)-ylidene)-N′-(pyridin-4-yl)benzimidamide] | inactive analogs; also recorded: almost inactive as CFTR correctors |  |  |  |
